Laboratory results published in patent US11401257B2, “Solid forms of 2-(4-chlorophenyl)-N-((2-(2,6-dioxopiperidin-3-yl)-1-oxoisoindolin-5-yl)methyl)-2,2-difluoroacetamide, and their pharmaceutical compositions and uses” (Celgene Corporation, priority 2016, dated 2022).
In brackets after ≈: the same amount, converted by molar mass.

Experiments:
Type in all cases: physicochemical
physchem [1] = settings: for solubility at 24 h: thermodynamic from solid
Procedure: Solubility of Form C in selected aqueous and organic solvents was determined by mixing solid with solvents at room temperature. […]

[2] = Hygroscopicity by dynamic vapor sorption (DVS); settings: for water uptake (DVS): relative humidity increased from about 0% to about 90% RH; for DVS water uptake: up to 90% RH
Procedure: Hygroscopicity was determined on a Surface Measurement Systems DVS. Typically a sample size of 5-20 mg was loaded into the DVS instrument sample pan and the sample was analyzed on a DVS automated sorption analyzer at room temperature. The relative humidity was increased from 0% to 90% RH at 10% RH step, then decreased in a similar manner to accomplish a full adsorption/desorption cycle.

[3] = Form conversion experiments (interconversion among solid forms); settings: anhydrates of Compound 1
Procedure: Further form conversion experiments were performed to determine interconversion among solid forms.

physchem [4] = settings: water, thermodynamic from solid, Approximate Solubility
Procedure: In order to select the screening solvents and to determine the concentration range to be used in the screen, a quantitative solubility assessment was performed on Form B and Form C of Compound 1.

SMILES	solubility (physchem [1]; 2 h)	solubility at 24 h (physchem [1]; pH 4, aqueous buffer)	solubility at 24 h (physchem [1]; pH 6.8, aqueous buffer)	water uptake (DVS) [2]	DVS water uptake [2]	thermodynamic stability among the crystal forms [3]	solubility (physchem [4])
O=C1CCC(N2Cc3cc(CNC(=O)C(F)(F)c4ccc(Cl)cc4)ccc3C2=O)C(=O)N1 (centres unmarked) [Form C, 2-(4-chlorophenyl)-N-((2-(2,6-dioxopiperidin-3-yl)-1-oxoisoindolin-5-yl)methyl)-2,2-difluoroacetamide]	843 µg/mL (≈ 1830 µM)	1 µg/mL (≈ 2.17 µM)	1 µg/mL (≈ 2.17 µM)	about 0.6 % w/w	~0.6 wt % water	most thermodynamically stable anhydrate	
O=C1CCC(N2Cc3cc(CNC(=O)C(F)(F)c4ccc(Cl)cc4)ccc3C2=O)C(=O)N1 (centres unmarked) [Form A, 2-(4-chlorophenyl)-N-((2-(2,6-dioxopiperidin-3-yl)-1-oxoisoindolin-5-yl)methyl)-2,2-difluoroacetamide]				about 1.2 % w/w	~1.2 wt % water		
O=C1CCC(N2Cc3cc(CNC(=O)C(F)(F)c4ccc(Cl)cc4)ccc3C2=O)C(=O)N1 (centres unmarked) [Form B, 2-(4-chlorophenyl)-N-((2-(2,6-dioxopiperidin-3-yl)-1-oxoisoindolin-5-yl)methyl)-2,2-difluoroacetamide]				about 1.4 % w/w	~1.4 wt % water		< 1000 µg/mL
